Test results: US10947210B2 (priority 2015, dated 2021)

Biological target: HCV RNA-dependent RNA polymerase (NS5B) (Hepatitis C virus genotype 1b (isolate BK) (HCV), UniProt P26663)
Test: RNA-Dependent RNA HCV NS5B (polymerase) Assay and IC50 Determination
Type: biochemical
Conditions: purified HCV NS5B polymerase, polyA:U16 substrate, 32P-UTP incorporation; read-out: IC50
In short: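 Purified NS5B was incubated with 0.5 uM polyA:U16, 10 μM UTP plus ^32P-UTP in 50 mM Hepes-KOH pH 7.5, 5 mM MgCl2, 5 mM DTT, 2% glycerol and 0.01% Triton X-100. Inhibitor reactions ran 60 min at 37° C, and radiolabelled RNA product was quantified after filter capture. IC50 values were obtained from concentration series.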

Chain of HCV RNA-dependent RNA polymerase (NS5B) (P26663 2420-3010): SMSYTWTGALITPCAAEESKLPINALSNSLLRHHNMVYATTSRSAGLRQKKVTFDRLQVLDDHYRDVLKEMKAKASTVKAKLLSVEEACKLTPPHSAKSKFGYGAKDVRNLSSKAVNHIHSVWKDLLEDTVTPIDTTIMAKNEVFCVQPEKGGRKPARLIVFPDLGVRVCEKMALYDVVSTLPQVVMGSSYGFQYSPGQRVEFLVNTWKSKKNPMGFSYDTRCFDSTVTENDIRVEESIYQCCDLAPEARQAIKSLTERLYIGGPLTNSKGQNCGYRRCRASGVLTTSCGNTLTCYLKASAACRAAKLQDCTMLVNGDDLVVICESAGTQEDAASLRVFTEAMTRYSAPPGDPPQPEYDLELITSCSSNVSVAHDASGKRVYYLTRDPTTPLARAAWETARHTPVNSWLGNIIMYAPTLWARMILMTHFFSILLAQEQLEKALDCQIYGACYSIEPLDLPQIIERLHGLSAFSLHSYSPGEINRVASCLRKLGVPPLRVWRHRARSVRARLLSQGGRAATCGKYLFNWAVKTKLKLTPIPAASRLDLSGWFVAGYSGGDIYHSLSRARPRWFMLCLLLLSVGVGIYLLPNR

| SMILES | IC50 [µM] |
| --- | --- |
| CNC(=O)c1c(-c2ccc(F)cc2)oc2cc(N(CCCCCOCc3ccc(C(=O)OC)cc3)S(C)(=O)=O)c(C3CC3)cc12 [Compound 16-6, 4-(5-{[5-Cyclopropyl-2-(4-fluoro-phenyl)-3-methylcarbamoyl-benzofuran-6-yl]-methanesulfonyl-amino}-pentyloxymethyl)-benzoic Acid Methyl Ester] | > 1 |
| CNC(=O)c1c(-c2ccc(F)cc2)oc2cc(N(CCOCCOCc3ccc(F)c(C(=O)NO)c3)S(C)(=O)=O)c(C3CC3)cc12 [Compound 17A-8B, 5-Cyclopropyl-6-({2-[2-(4-fluoro-3-hydroxycarbamoyl-benzyloxy)-ethoxy]-ethyl}-methanesulfonyl-amino)-2-(4-fluoro-phenyl)-benzofuran-3-carboxylic Acid Methylamide] | > 1 |
| CNC(=O)c1c(-c2ccc(F)cc2)oc2cc(N(CCOCCOCc3ccc(C(=O)OC)c(C)c3)S(C)(=O)=O)c(C3CC3)cc12 [Compound 18-9A, 4-[2-(2-{[5-Cyclopropyl-2-(4-fluoro-phenyl)-3-methylcarbamoyl-benzofuran-6-yl]-methanesulfonyl-amino}-ethoxy)-ethoxymethyl]-2-methyl-benzoic Acid Methyl Ester] | > 1 |
| CNC(=O)c1c(-c2ccc(F)cc2)oc2cc(N(CCOCCOCc3ccc(C(=O)OC)cc3C)S(C)(=O)=O)c(C3CC3)cc12 [Compound 18-9B, 4-[2-(2-{[5-Cyclopropyl-2-(4-fluoro-phenyl)-3-methylcarbamoyl-benzofuran-6-yl]-methanesulfonyl-amino}-ethoxy)-ethoxymethyl]-3-methyl-benzoic Acid Methyl Ester] | > 1 |
| CNC(=O)c1c(-c2ccc(F)cc2)oc2cc(N(CCOCCOCc3ccc(C(=O)O)c(C)c3)S(C)(=O)=O)c(C3CC3)cc12 [Compound 18-10A, 4-[2-(2-{[5-Cyclopropyl-2-(4-fluoro-phenyl)-3-methylcarbamoyl-benzofuran-6-yl]-methanesulfonyl-amino}-ethoxy)-ethoxymethyl]-2-methyl-benzoic Acid] | 0.1 to 1 |
| CNC(=O)c1c(-c2ccc(F)cc2)oc2cc(N(CCOCCOCc3ccc(C(=O)O)cc3C)S(C)(=O)=O)c(C3CC3)cc12 [Compound 18-10B, 4-[2-(2-{[5-Cyclopropyl-2-(4-fluoro-phenyl)-3-methylcarbamoyl-benzofuran-6-yl]-methanesulfonyl-amino}-ethoxy)-ethoxymethyl]-3-methyl-benzoic Acid] | < 0.1 |
| CNC(=O)c1c(-c2ccc(F)cc2)oc2cc(N(CCOCCOCc3ccnc(Cl)c3)S(C)(=O)=O)c(C3CC3)cc12 [Compound 19-8A, 6-({2-[2-(2-Chloro-pyridin-4-ylmethoxy)-ethoxy]-ethyl}-methanesulfonyl-amino)-5-cyclopropyl-2-(4-fluoro-phenyl)-benzofuran-3-carboxylic Acid Methylamide] | < 0.1 |
| CNC(=O)c1c(-c2ccc(F)cc2)oc2cc(N(CCOCCOCc3ccc(Cl)nc3)S(C)(=O)=O)c(C3CC3)cc12 [Compound 19-8B] | < 0.1 |
| CCOC(=O)c1ccc(COCCOCCN(c2cc3oc(-c4ccc(F)cc4)c(C(=O)NC)c3cc2C2CC2)S(C)(=O)=O)c2ccccc12 [Compound 20-7, 4-[2-(2-{[5-Cyclopropyl-2-(4-fluoro-phenyl)-3-methylcarbamoyl-benzofuran-6-yl]-methanesulfonyl-amino}-ethoxy)-ethoxymethyl]-naphthalene-1-carboxylic Acid Ethyl Ester] | 0.1 to 1 |
| CNC(=O)c1c(-c2ccc(F)cc2)oc2cc(N(CCOCCOCc3ccc(C(=O)O)c4ccccc34)S(C)(=O)=O)c(C3CC3)cc12 [Compound 20-8, 4-[2-(2-{[5-Cyclopropyl-2-(4-fluoro-phenyl)-3-methylcarbamoyl-benzofuran-6-yl]-methanesulfonyl-amino}-ethoxy)-ethoxymethyl]-naphthalene-1-carboxylic Acid] | < 0.1 |
| CNC(=O)c1c(-c2ccc(F)cc2)oc2cc(N(CCOCCSC(C)=O)S(C)(=O)=O)c(C3CC3)cc12 [Compound 21-5, Thioacetic Acid S-[2-(2-{[5-cyclopropyl-2-(4-fluoro-phenyl)-3-methylcarbamoyl-benzofuran-6-yl]-methanesulfonyl-amino}-ethoxy)-ethyl] Ester] | < 0.1 |
| CNC(=O)c1c(-c2ccc(F)cc2)oc2cc(N(CCOCCOCCOCC(=O)OC(C)(C)C)S(C)(=O)=O)c(C3CC3)cc12 [Compound 23-5A, {2-[2-(2-{[5-Cyclopropyl-2-(4-fluoro-phenyl)-3-methylcarbamoyl-benzofuran-6-yl]-methanesulfonyl-amino}-ethoxy)-ethoxy]-ethoxy}-acetic Acid Tert-butyl Ester] | > 1 |
| CNC(=O)c1c(-c2ccc(F)cc2)oc2cc(N(CCOCCOCCOCC(N)=O)S(C)(=O)=O)c(C3CC3)cc12 [Compound 23-7A, 6-({2-[2-(2-Carbamoylmethoxy-ethoxy)-ethoxy]-ethyl}-methanesulfonyl-amino)-5-cyclopropyl-2-(4-fluoro-phenyl)-benzofuran-3-carboxylic Acid Methylamide] | 0.1 to 1 |
| CNC(=O)c1c(-c2ccc(F)cc2)oc2cc(N(CCOCCOCCOCCC(=O)O)S(C)(=O)=O)c(C3CC3)cc12 [Compound 24-4, 3-{2-[2-(2-{[5-Cyclopropyl-2-(4-fluoro-phenyl)-3-methylcarbamoyl-benzofuran-6-yl]-methanesulfonyl-amino}-ethoxy)-ethoxy]-ethoxy}-propionic Acid] | 0.1 to 1 |
| CCOC(=O)C(OCCOCCOCCN(c1cc2oc(-c3ccc(F)cc3)c(C(=O)NC)c2cc1C1CC1)S(C)(=O)=O)c1ccccc1 (centres unmarked) [Compound 25-4, {2-[2-(2-{[5-Cyclopropyl-2-(4-fluoro-phenyl)-3-methylcarbamoyl-benzofuran-6-yl]-methanesulfonyl-amino}-ethoxy)-ethoxy]-ethoxy}-phenyl-acetic Acid Ethyl Ester] | > 1 |
| CNC(=O)c1c(-c2ccc(F)cc2)oc2cc(N(CCOCCOCCOC(C(=O)NO)c3ccccc3)S(C)(=O)=O)c(C3CC3)cc12 (centres unmarked) [Compound 25-6, 5-Cyclopropyl-2-(4-fluoro-phenyl)-6-[(2-{2-[2-(hydroxycarbamoyl-phenyl-methoxy)-ethoxy]-ethoxy}-ethyl)-methanesulfonyl-amino]-benzofuran-3-carboxylic Acid Methylamide] | > 1 |
| CNC(=O)c1c(-c2ccc(F)cc2)oc2cc(N(CCOCCOCCOC3(C(=O)OC(C)(C)C)CCCC3)S(C)(=O)=O)c(C3CC3)cc12 [Compound 26-6A] | > 1 |
| CNC(=O)c1c(-c2ccc(F)cc2)oc2cc(N(CCOCCOCCOC(C)(C)C(=O)OC(C)(C)C)S(C)(=O)=O)c(C3CC3)cc12 [Compound 26-6B, 2-{2-[2-(2-{[5-Cyclopropyl-2-(4-fluoro-phenyl)-3-methylcarbamoyl-benzofuran-6-yl]-methanesulfonyl-amino}-ethoxy)-ethoxy]-ethoxy}-2-methyl-propionic Acid Tert-butyl Ester] | > 1 |
| CNC(=O)c1c(-c2ccc(F)cc2)oc2cc(N(CCOCCOCCOC3(C(=O)O)CCCC3)S(C)(=O)=O)c(C3CC3)cc12 [Compound 26-7A, 1-{2-[2-(2-{[5-Cyclopropyl-2-(4-fluoro-phenyl)-3-methylcarbamoyl-benzofuran-6-yl]-methanesulfonyl-amino}-ethoxy)-ethoxy]-ethoxy}-cyclopentanecarboxylic Acid] | < 0.1 |
| CNC(=O)c1c(-c2ccc(F)cc2)oc2cc(N(CCOCCOCCOC(C)(C)C(=O)O)S(C)(=O)=O)c(C3CC3)cc12 [Compound 26-7B, 2-{2-[2-(2-{[5-Cyclopropyl-2-(4-fluoro-phenyl)-3-methylcarbamoyl-benzofuran-6-yl]-methanesulfonyl-amino}-ethoxy)-ethoxy]-ethoxy}-2-methyl-propionic Acid] | 0.1 to 1 |
| CNC(=O)c1c(-c2ccc(F)cc2)oc2cc(N(CCOCCOCCOC(C)(C)C(=O)NO)S(C)(=O)=O)c(C3CC3)cc12 [Compound 26-8B, 5-Cyclopropyl-2-(4-fluoro-phenyl)-6-[(2-{2-[2-(1-hydroxycarbamoyl-1-methyl-ethoxy)-ethoxy]-ethoxy}-ethyl)-methanesulfonyl-amino]-benzofuran-3-carboxylic Acid Methylamide] | > 1 |
| CNC(=O)c1c(-c2ccc(F)cc2)oc2cc(N(CCOCCCCCOCC(=O)OC(C)(C)C)S(C)(=O)=O)c(C3CC3)cc12 [Compound 27-8A, [5-(2-{[5-Cyclopropyl-2-(4-fluoro-phenyl)-3-methylcarbamoyl-benzofuran-6-yl]-methanesulfonyl-amino}-ethoxy)-pentyloxy]-acetic Acid Tert-butyl Ester] | > 1 |
| CNC(=O)c1c(-c2ccc(F)cc2)oc2cc(N(CCOCCCCCOCC(=O)O)S(C)(=O)=O)c(C3CC3)cc12 [Compound 27-9A, [5-(2-{[5-Cyclopropyl-2-(4-fluoro-phenyl)-3-methylcarbamoyl-benzofuran-6-yl]-methanesulfonyl-amino}-ethoxy)-pentyloxy]-acetic Acid] | 0.1 to 1 |
| CNC(=O)c1c(-c2ccc(F)cc2)oc2cc(N(CCOCCCCCOC(C)C(=O)O)S(C)(=O)=O)c(C3CC3)cc12 (centres unmarked) [Compound 27-9B, 2-[5-(2-{[5-Cyclopropyl-2-(4-fluoro-phenyl)-3-methylcarbamoyl-benzofuran-6-yl]-methanesulfonyl-amino}-ethoxy)-pentyloxy]-propionic Acid] | 0.1 to 1 |
| CNC(=O)c1c(-c2ccc(F)cc2)oc2cc(N(CCCCCOCCCCC(=O)OC(C)(C)C)S(C)(=O)=O)c(C3CC3)cc12 [Compound 28-7A, 5-(5-{[5-Cyclopropyl-2-(4-fluoro-phenyl)-3-methylcarbamoyl-benzofuran-6-yl]-methanesulfonyl-amino}-pentyloxy)-pentanoic Acid Tert-butyl Ester] | > 1 |
| CNC(=O)c1c(-c2ccc(F)cc2)oc2cc(N(CCCCCOCCCCC(=O)O)S(C)(=O)=O)c(C3CC3)cc12 [Compound 28-8A, 5-((5-(N-(5-cyclopropyl-2-(4-fluorophenyl)-3-(methylcarbamoyl)benzofuran-6-yl)-methylsulfonamido)-pentyl)-oxy)-pentanoic Acid] | < 0.1 |
